Measurements published in ChEMBL document CHEMBL2406912, “In vivo antimalarial activity of novel 2-hydroxy-3-anilino-1,4-naphthoquinones obtained by epoxide ring-opening reaction” (2013).

Legend:
Format in all cases: functional
Plasmodium berghei [1] = assay: Antimalarial activity against Plasmodium berghei NK65 infected in Swiss albino mouse assessed as increase of survival days of host at 100 mg/kg, po qd for 4 days (reference value: 20 +/- 2.7 days)
Plasmodium berghei [2] = assay: Antimalarial activity against Plasmodium berghei NK65 infected in Swiss albino mouse assessed as inhibition of parasitemia at 100 mg/kg, po qd for 4 days measured on day 5 of after infection relative to control
Plasmodium berghei [3] = assay: Antimalarial activity against Plasmodium berghei NK65 infected in Swiss albino mouse assessed as inhibition of parasitemia at 100 mg/kg, po qd for 4 days measured on day 7 of after infection relative to control
Plasmodium berghei [4] = assay: Antimalarial activity against Plasmodium berghei NK65 infected in Swiss albino mouse assessed as inhibition of parasitemia at 10 mg/kg, po qd for 4 days measured on day 5 to 7 of after infection relative to control
Plasmodium berghei [5] = assay: Antimalarial activity against Plasmodium berghei NK65 infected in Swiss albino mouse assessed as increase of survival days of host at 10 mg/kg, po qd for 4 days (reference value: 20 +/- 2.7 days)

SMILES: O=C1C(O)=C(Nc2ccccc2)C(=O)c2ccccc21
- MSD (Plasmodium berghei [1]): 32.5 days
- inhibition in vivo at 100 mg/kg (Plasmodium berghei [2]): 53.3%
- inhibition in vivo at 100 mg/kg (Plasmodium berghei [3]): 18.5%

SMILES: COc1ccc(NC2=C(O)C(=O)c3ccccc3C2=O)cc1
- MSD (Plasmodium berghei [1]): 26 days
- inhibition in vivo at 100 mg/kg (Plasmodium berghei [2]): 66.6%
- inhibition in vivo at 100 mg/kg (Plasmodium berghei [3]): 25.9%

SMILES: Cc1cccc(C)c1NC1=C(O)C(=O)c2ccccc2C1=O
- MSD (Plasmodium berghei [1]): 26.7 days
- inhibition in vivo at 100 mg/kg (Plasmodium berghei [2]): 0%
- inhibition in vivo at 100 mg/kg (Plasmodium berghei [3]): 0%

SMILES: CCN(CC)CCCC(C)Nc1ccnc2cc(Cl)ccc12 (stereo unspecified) [CHLOROQUINE]
- inhibition in vivo at 10 mg/kg (Plasmodium berghei [4]): 98%
- MSD (Plasmodium berghei [5]): >60 days
